The subject of one assay is H1975 cells. In words: Trypan blue cell death assay, H1975 cells (wild type, afatinib- and osimertinib-resistant). In kind it is cell-based, human. The settings on record: osimertinib-resistant H1975 and H1650 cells, 24 h.
In assay [1] the test system is CD56+ natural killer cells. As to the kind of experiment: Viability and effects on CD56+ natural killer cells after 72 hours of exposure. It is filed as cell-based. Here is the method: (§1) In vitro assays designed to assess the viability and effects of GZ17-6.02, GZ17-6.02.02, its metabolites as single agents, and the metabolites in combination effects of CD8+ T cells and CD56+ natural killer cells after 72 hours of exposure. Test agents used included 6.02 (77% Isovanillin+13% Harmine+10% Curcumin), 6.02.02 (77% Isovanillin+13% Harmine+8.5% Curcumin sulfate tetrabutylammonium salt+1.5% Curcumin β-D-glucuronide), Curcumin metabolites combination (85% Curcumin sulfate tetrabutylammonium salt+15% Curcumin β-D-glucuronide), Curcumin metabolites single agents (single agent Curcumin sulfate tetrabutylammonium salt, or single agent Curcumin 3-D-glucuronide).

A further assay deals with CD8+ T cells. In words: Viability and effects on CD8+ T cells after 72 hours of exposure. In kind it is cell-based. Here is the method:
as §1

Protocol for H1975 cells: Detection of cell death by trypan blue assay. Cells were treated with vehicle control or with drugs alone or in combination for 24 h. At the indicated time points cells were harvested by trypsinization and centrifugation. Cell pellets were resuspended in PBS and mixed with trypan blue agent. Viability was determined microscopically using a hemocytometer. Five hundred cells from randomly chosen fields were counted and the number of dead cells was counted and expressed as a percentage of the total number of cells counted.
H1650, wild type sensitive and afatinib resistant (AR) H1975 and erlotinib resistant (ER) HCC827 cells were treated with vehicle, erlotinib (500 nM), afatinib (500 nM), GZ17-6.02 (2 mM curcumin final) or the drugs in combination for 24 h. […] In a separate study, cells were treated with vehicle, osimertinib (100 nM), GZ17-6.02 (2 mM curcumin final) or the drugs in combination for 24 h.
Osimertinib-resistant H1975 and H1650 cells were generated as described and studied to determine if GZ17-6.02 interacts with pemetrexed to kill NSCLC cells. H1975 and H1650 cells (wild type sensitive and osimertinib resistant (OR)) were treated with vehicle, erlotinib (500 nM), afatinib (500 nM), osimertinib (100 nM), GZ17-6.02 (2 mM curcumin final) or the drugs in combination for 24 h. […]

`C#Cc1cccc(Nc2ncnc3cc(OCCOC)c(OCCOC)cc23)c1` [erlotinib, Erlotinib]: in the assay on H1975 cells, the “ability to enhance GZ17-6.02 killing” value is “abolished”.

Regarding `COc1cc(/C=C/C(=O)CC(=O)/C=C/c2ccc(O[C@@H]3O[C@H](C(=O)O)[C@@H](O)[C@H](O)[C@H]3O)c(OC)c2)ccc1O` [Curcumin B-D-Glucuronide, Curcumin β-D-glucuronide], the “CD56 + NK Cells % of control” value was 98.08 % of control in assay [1] (0.03 μM), 100.22 % of control in assay [1] (0.3 μM), 93.81 % of control in assay [1] (3 μM) and 95.28 % of control in assay [1] (30 μM). In addition, the “CD8 + T Cells % of control” value is 124.35 % of control in the assay with CD8+ T cells (0.03 μM), 114.54 % of control in the assay with CD8+ T cells (0.3 μM), 118.58 % of control with CD8+ T cells (3 μM) and 110.23 % of control in the assay with CD8+ T cells (30 μM).

As for `C=CC(=O)Nc1cc(Nc2nccc(-c3cn(C)c4ccccc34)n2)c(OC)cc1N(C)CCN(C)C` [osimertinib, Osimertinib], the “ability to enhance GZ17-6.02 killing” value with H1975 cells was “abolished”.

The values are drawn from US20220008359A1, “COMBINATION ANTI-CANCER PRODUCTS AND METHODS” (priority 2020, published 2022).
